{
  "source": "PubChem BioAssay AID1259411",
  "about": "(Chemical Carcinogenesis Research Information System (CCRIS), 2018)",
  "tested_on": "rodent carcinogenicity bioassays, tumor incidence",
  "assay": "CCRIS carcinogenicity studies",
  "procedure,_shortened": "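Archive of carcinogenicity, mutagenicity, tumor promotion and tumor inhibition results drawn from journals, NCI reports and other sources, expert-reviewed; covers 1985-2011 and is no longer updated.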",
  "note": "Activity calls are given as the source filed them. No rule for the calls is given here.",
  "data": [
    {"smiles": "CC(=O)OC[C@H]1O[C@H](O[C@]2(COC(C)=O)O[C@H](COC(=O)C(C)C)[C@@H](OC(=O)C(C)C)[C@@H]2OC(=O)C(C)C)[C@H](OC(=O)C(C)C)[C@@H](OC(=O)C(C)C)[C@@H]1OC(=O)C(C)C", "values": [
      {"measurement": "carcinogen call", "setting": "Species: MONKEY, Strain/Sex: CYNOMOLGUS/FEMALE, Route: GAVAGE, Dose: 0, 500, 1450, 2400 MG/KG BW 1X/D FOR 52 WK (STUDY DURATION: 52 WK), Dose: 0, 500, 1450, 2400 MG/KG BW 1X/D FOR 52 WK (STUDY DURATION: 52 WK)", "value": "inactive; negative"},
      {"measurement": "carcinogen call", "setting": "Species: MONKEY, Strain/Sex: CYNOMOLGUS/MALE, Route: GAVAGE, Dose: 0, 500, 1450, 2400 MG/KG BW 1X/D FOR 52 WK (STUDY DURATION: 52 WK), Dose: 0, 500, 1450, 2400 MG/KG BW 1X/D FOR 52 WK (STUDY DURATION: 52 WK)", "value": "inactive; negative"},
      {"measurement": "carcinogen call", "setting": "Species: MOUSE, Strain/Sex: B6C3F1/FEMALE, Route: ORAL, Dose: 0, 1.25, 2.5, 5 G/KG BW IN DIET FOR 2 YR (STUDY DURATION: 2 YR), Dose: 0, 1.25, 2.5, 5 G/KG BW IN DIET FOR 2 YR (STUDY DURATION: 2 YR)", "value": "inactive; negative"},
      {"measurement": "carcinogen call", "setting": "Species: MOUSE, Strain/Sex: B6C3F1/MALE, Route: ORAL, Dose: 0, 1.25, 2.5, 5 G/KG BW IN DIET FOR 2 YR (STUDY DURATION: 2 YR), Dose: 0, 1.25, 2.5, 5 G/KG BW IN DIET FOR 2 YR (STUDY DURATION: 2 YR)", "value": "inactive; negative"},
      {"measurement": "carcinogen call", "setting": "Species: RAT, Strain/Sex: F344/FEMALE, Route: ORAL, Dose: 0 0.5, 1, 2 G/KG BE IN DIET FOR 2 YR (STUDY DURATION: 2 YR), Dose: 0 0.5, 1, 2 G/KG BE IN DIET FOR 2 YR (STUDY DURATION: 2 YR)", "value": "inactive; negative"},
      {"measurement": "carcinogen call", "setting": "Species: RAT, Strain/Sex: F344/MALE, Route: ORAL, Dose: 0, 0.5, 1, 2 G/KG BW IN DIET FOR 2 YR (STUDY DURATION: 2 YR), Dose: 0, 0.5, 1, 2 G/KG BW IN DIET FOR 2 YR (STUDY DURATION: 2 YR)", "value": "inactive; negative"}
    ]},
    {"smiles": "O=C(Nc1ccccc1)Nc1ccnc(Cl)c1", "values": [
      {"measurement": "carcinogen call", "setting": "Species: Mouse, Strain/Sex: CD-1/Female (60/Group), Route: Oral, Dose: 0, 10, 1000 mg/kg/day of 96.9% forchlorfenuron in diet for 18 mo, study duration 18 mo, Dose: 0, 10, 1000 mg/kg/day of 96.9% forchlorfenuron in diet for 18 mo, study duration 18 mo", "value": "inactive; negative"},
      {"measurement": "carcinogen call", "setting": "Species: Mouse, Strain/Sex: CD-1/Male (60/Group), Route: Oral, Dose: 0, 10, 1000 mg/kg/day of 96.9% forchlorfenuron in diet for 18 mo, study duration 18 mo, Dose: 0, 10, 1000 mg/kg/day of 96.9% forchlorfenuron in diet for 18 mo, study duration 18 mo", "value": "inactive; negative"},
      {"measurement": "carcinogen call", "setting": "Species: Rat, Strain/Sex: Strain not specified by Department of Pesticides Regulation/Female (70/Group), Route: Oral, Dose: 0, 9, 122, 518 mg/kg/day of 98.5% forchlorfenuron in diet for up to 2 yr, study duration 2 yr, Dose: 0, 9, 122, 518 mg/kg/day of 98.5% forchlorfenuron in diet for up to 2 yr, study duration 2 yr", "value": "inactive; negative"},
      {"measurement": "carcinogen call", "setting": "Species: Rat, Strain/Sex: Strain not specified by Department of Pesticides Regulation/Male (70/Group), Route: Oral, Dose: 0, 7, 93, 352 mg/kg/day of 98.5% forchlorfenuron in diet for up to 2 yr, study duration 2 yr, Dose: 0, 7, 93, 352 mg/kg/day of 98.5% forchlorfenuron in diet for up to 2 yr, study duration 2 yr", "value": "inactive; negative"}
    ]},
    {"smiles": "CNC(=O)Oc1cccc(N=CN(C)C)c1", "values": [
      {"measurement": "carcinogen call", "setting": "Species: Mouse, Strain/Sex: Crl:CD-1(ICR) BR/Female (50/Group), Route: Oral, Dose: 0, 10, 50, 500 ppm of 95.7% formetanate HCl in diet for 104 wk, study duration 104 wk, Dose: 0, 10, 50, 500 ppm of 95.7% formetanate HCl in diet for 104 wk, study duration 104 wk", "value": "inactive; negative"},
      {"measurement": "carcinogen call", "setting": "Species: Mouse, Strain/Sex: Crl:CD-1(ICR) BR/Male (50/Group), Route: Oral, Dose: 0, 10, 50, 500 ppm of 95.7% formetanate HCl in diet for 104 wk, study duration 104 wk, Dose: 0, 10, 50, 500 ppm of 95.7% formetanate HCl in diet for 104 wk, study duration 104 wk", "value": "inactive; negative"},
      {"measurement": "carcinogen call", "setting": "Species: Rat, Strain/Sex: Crl:COBS CD(SD)BR/Female (50/Group), Route: Oral, Dose: 0, 10, 50, 250 ppm of 95.1-96% formetanate HCl in diet for 104 wk, study duration 104 wk, Dose: 0, 10, 50, 250 ppm of 95.1-96% formetanate HCl in diet for 104 wk, study duration 104 wk", "value": "inactive; negative"},
      {"measurement": "carcinogen call", "setting": "Species: Rat, Strain/Sex: Crl:COBS CD(SD)BR/Male (50/Group), Route: Oral, Dose: 0, 10, 50, 250 ppm of 95.1-96% formetanate HCl in diet for 104 wk, study duration 104 wk, Dose: 0, 10, 50, 250 ppm of 95.1-96% formetanate HCl in diet for 104 wk, study duration 104 wk", "value": "inactive; negative"}
    ]},
    {"smiles": "CCCC[N+](=O)[O-]", "values": [
      {"measurement": "carcinogen call", "setting": "Species: RAT, Strain/Sex: F344/MALE, Route: GAVAGE, Dose: 0, 2 MMOL/KG BW 1/WK FOR 50 WK (STUDY DURATION: 83 WK)", "value": "inactive; negative"}
    ]},
    {"smiles": "COS(=O)(=O)OC", "values": [
      {"measurement": "carcinogen call", "setting": "Species: RAT, Route: INHALATION, Tumor Site: Type of Lesion: NASAL CAVITY, BRAIN", "value": "active; positive"},
      {"measurement": "carcinogen call", "setting": "Species: RAT, Route: SUBCUTANEOUS, Tumor Site: Type of Lesion: INJECTION SITE", "value": "active; positive"}
    ]}
  ]
}
